# Laboratory results: patent US10428083B2, “Heterocyclylmethyl-thienouracile as antagonists of the adenosine-A2B-receptor” (BAYER PHARMA AKTIENGESELLSCHAFT, priority 2015, dated 2019)
# Biological target: human adenosine A2b receptor (Homo sapiens (Human), UniProt P29275)
# Assay: Cellular in vitro reporter gene test for A2b receptor activity (CHO-K1, CRE-luciferase, NECA stimulation)
# Assay type: cell-based
# Conditions: not given
# Method: B-1. Cellular In Vitro Tests for Determining A2b Receptor Activity and Adenosine Receptor Selectivity
# In the case of the A2a and A2b cell lines, this is a minimal promoter having a plurality of cAMP-responsive elements (CRE). Stimulation of the Gs-coupled A2b or A2a receptors by NECA ultimately leads, via formation of cAMP, to CRE-dependent induction of luciferase expression, which is detected 3 hours after the start of the incubation with NECA using a detection solution in a suitable luminometer. For testing the antagonists, initially, in a pre-experiment, the concentration of NECA which, at the test day in question, results in half-maximum stimulation of luciferase expression (EC50 concentration) is determined. By joint incubation of this EC50 concentration of NECA with the substances to be tested, it is possible to determine their antagonistic activity.
# human adenosine A2b receptor, sequence (P29275 whole entry): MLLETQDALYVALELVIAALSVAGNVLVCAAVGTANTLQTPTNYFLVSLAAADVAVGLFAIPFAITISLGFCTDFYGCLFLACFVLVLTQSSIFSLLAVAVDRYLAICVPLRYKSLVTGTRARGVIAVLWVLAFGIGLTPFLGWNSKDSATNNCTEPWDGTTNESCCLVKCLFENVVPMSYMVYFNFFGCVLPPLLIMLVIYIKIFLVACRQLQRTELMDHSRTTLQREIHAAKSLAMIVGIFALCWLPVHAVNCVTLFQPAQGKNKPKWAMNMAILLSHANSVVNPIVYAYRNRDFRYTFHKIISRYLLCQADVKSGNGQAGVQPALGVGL
row,Structure (SMILES),IC50 [nM]
1,"COCCn1c(=O)n(C(C)C(F)(F)F)c(=O)c2c(C)c(Cn3nc[nH]c3=O)sc21 (racemic) [Example 438, 1-(2-Methoxyethyl)-5-methyl-6-[(5-oxo-4,5-dihydro-1H-1,2,4-triazol-1-yl)methyl]-3-(1,1,1-trifluoropropan-2-yl)thieno[2,3-d]pyrimidine-2,4(1H,3H)-dione]",150
2,"Cc1c(CN2CCNC2=NC#N)sc2c1c(=O)n(C(C)C(F)(F)F)c(=O)n2CCC(F)(F)F (racemic) [Example 451, [1-{[5-Methyl-2,4-dioxo-3-(1,1,1-trifluoropropan-2-yl)-1-(3,3,3-trifluoropropyl)-1,2,3,4-tetrahydrothieno[2,3-d]pyrimidin-6-yl]methyl}imidazolidin-2-ylidene]cyanamide]",10

# Same assay, conditions: recombinant CHO-K1 cell line, CRE-luciferase reporter, antagonism of EC50 concentration of NECA; in some cases means of several determinations, rounded to two significant figures; read-out: A2b receptor IC50
row,Structure (SMILES),IC50 [nM]
1,"COC(=O)N=C1NCCN1Cc1sc2c(c1C)c(=O)n(CC(F)(F)F)c(=O)n2CC1CCO1 (racemic) [Example 383, Methyl [1-{[5-methyl-1-(oxetan-2-ylmethyl)-2,4-dioxo-3-(2,2,2-trifluoroethyl)-1,2,3,4-tetrahydrothieno[2,3-d]pyrimidin-6-yl]methyl}imidazolidin-2-ylidene]carbamate]",15
2,"COC(=O)N=C1NCCN1Cc1sc2c(c1C)c(=O)n(CC(F)(F)F)c(=O)n2CC1CCCO1 (racemic) [Example 384, Methyl [1-{[5-methyl-2,4-dioxo-1-(tetrahydrofuran-2-ylmethyl)-3-(2,2,2-trifluoroethyl)-1,2,3,4-tetrahydrothieno[2,3-d]pyrimidin-6-yl]methyl}imidazolidin-2-ylidene]carbamate]",9.8
3,"COCCn1c(=O)c2c(C)c(CN3CCNC3=NC(=O)OC)sc2n(CC2CCO2)c1=O (racemic) [Example 387, Methyl [1-{[3-(2-methoxyethyl)-5-methyl-1-(oxetan-2-ylmethyl)-2,4-dioxo-1,2,3,4-tetrahydrothieno[2,3-d]pyrimidin-6-yl]methyl}imidazolidin-2-ylidene]carbamate]",96
4,"COCCn1c(=O)c2c(C)c(CN3CCNC3=NC(=O)OC)sc2n(CC2CCCO2)c1=O (racemic) [Example 390, Methyl [1-{[3-(2-methoxyethyl)-5-methyl-2,4-dioxo-1-(tetrahydrofuran-2-ylmethyl)-1,2,3,4-tetrahydrothieno[2,3-d]pyrimidin-6-yl]methyl}imidazolidin-2-ylidene]carbamate]",28
5,"Cc1c(CN2CCNC(=O)C2=O)sc2c1c(=O)n(C(C)C)c(=O)n2CC1CCO1 (racemic) [Example 397, 6-[(2,3-Dioxopiperazin-1-yl)methyl]-3-isopropyl-5-methyl-1-(oxetan-2-ylmethyl)thieno[2,3-d]pyrimidine-2,4(1H,3H)-dione]",120
6,"COCCn1c(=O)c2c(C)c(CN3CCNC(=O)C3=O)sc2n(CC2CCO2)c1=O (racemic) [Example 400, 6-[(2,3-Dioxopiperazin-1-yl)methyl]-3-(2-methoxyethyl)-5-methyl-1-(oxetan-2-ylmethyl)thieno[2,3-d]pyrimidine-2,4(1H,3H)-dione]",320
7,"Cc1c(CN2CCNC2=O)sc2c1c(=O)n(CC(C)(C)C)c(=O)n2CC1CCCO1 (racemic) [Example 406, 3-(2,2-Dimethylpropyl)-5-methyl-6-[(2-oxoimidazolidin-1-yl)methyl]-1-(tetrahydrofuran-2-ylmethyl)thieno[2,3-d]pyrimidine-2,4(1H,3H)-dione]",29
8,"COCCn1c(=O)n(C(C)C(F)(F)F)c(=O)c2c(C)c(CN3CCNC3=O)sc21 (racemic) [Example 410, 1-(2-Methoxyethyl)-5-methyl-6-[(2-oxoimidazolidin-1-yl)methyl]-3-(1,1,1-trifluoropropan-2-yl)thieno[2,3-d]pyrimidine-2,4(1H,3H)-dione]",12
9,"COC(C)Cn1c(=O)c2c(C)c(CN3CCNC3=O)sc2n(CCC(F)(F)F)c1=O (racemic) [Example 412, 3-(2-Methoxypropyl)-5-methyl-6-[(2-oxoimidazolidin-1-yl)methyl]-1-(3,3,3-trifluoropropyl)thieno[2,3-d]pyrimidine-2,4(1H,3H)-dione]",5.4
10,"CCn1c(=O)c2c(C)c(C(C)N3CCNC3=O)sc2n(CCC(F)(F)F)c1=O (racemic) [Example 416, 3-Ethyl-5-methyl-6-[1-(2-oxoimidazolidin-1-yl)ethyl]-1-(3,3,3-trifluoropropyl)thieno[2,3-d]pyrimidine-2,4(1H,3H)-dione]",79
11,"CCn1c(=O)c2c(C)c(Cn3nc[nH]c3=O)sc2n(CC2CCCO2)c1=O (racemic) [Example 419, 3-Ethyl-5-methyl-6-[(5-oxo-4,5-dihydro-1H-1,2,4-triazol-1-yl)methyl]-1-(tetrahydrofuran-2-ylmethyl)thieno[2,3-d]pyrimidine-2,4(1H,3H)-dione]",130
12,"Cc1c(Cn2nc[nH]c2=O)sc2c1c(=O)n(C(C)C)c(=O)n2CC1CCCO1 (racemic) [Example 424, 3-Isopropyl-5-methyl-6-[(5-oxo-4,5-dihydro-1H-1,2,4-triazol-1-yl)methyl]-1-(tetrahydrofuran-2-ylmethyl)thieno[2,3-d]pyrimidine-2,4(1H,3H)-dione]",88
13,"Cc1c(Cn2nc[nH]c2=O)sc2c1c(=O)n(CC(C)(C)C)c(=O)n2CC1CCCO1 (racemic) [Example 429, 3-(2,2-Dimethylpropyl)-5-methyl-6-[(5-oxo-4,5-dihydro-1H-1,2,4-triazol-1-yl)methyl]-1-(tetrahydrofuran-2-ylmethyl)thieno[2,3-d]pyrimidine-2,4(1H,3H)-dione]",75
14,"Cc1c(Cn2nc[nH]c2=O)sc2c1c(=O)n(CC(F)(F)F)c(=O)n2CC1CCCO1 (racemic) [Example 434, 5-Methyl-6-[(5-oxo-4,5-dihydro-H-1,2,4-triazol-1-yl)methyl]-1-(tetrahydrofuran-2-ylmethyl)-3-(2,2,2-trifluoroethyl)thieno[2,3-d]pyrimidine-2,4(1H,3H)-dione]",82
15,"Cc1c(Cn2nc[nH]c2=O)sc2c1c(=O)n(C(C)C(F)(F)F)c(=O)n2CCC(F)(F)F (racemic) [Example 437, 5-Methyl-6-[(5-oxo-4,5-dihydro-1H-1,2,4-triazol-1-yl)methyl]-3-(1,1,1-trifluoropropan-2-yl)-1-(3,3,3-trifluoropropyl)thieno[2,3-d]pyrimidine-2,4(1H,3H)-dione]",48
16,"COC(C)Cn1c(=O)c2c(C)c(Cn3nc[nH]c3=O)sc2n(CCC(F)(F)F)c1=O (racemic) [Example 440, 3-(2-Methoxypropyl)-5-methyl-6-[(5-oxo-4,5-dihydro-1H-1,2,4-triazol-1-yl)methyl]-1-(3,3,3-trifluoropropyl)thieno[2,3-d]pyrimidine-2,4(1H,3H)-dione]",23
17,"Cc1c(CN2CCNC2=NC#N)sc2c1c(=O)n(CC(C)(C)C)c(=O)n2CC1CCCO1 (racemic) [Example 446, [1-{[3-(2,2-Dimethylpropyl)-5-methyl-2,4-dioxo-1-(tetrahydrofuran-2-ylmethyl)-1,2,3,4-tetrahydrothieno[2,3-d]pyrimidin-6-yl]methyl}imidazolidin-2-ylidene]cyanamide]",19
18,"COCCn1c(=O)n(C(C)C(F)(F)F)c(=O)c2c(C)c(CN3CCNC3=NC#N)sc21 (racemic) [Example 452, [1-{[1-(2-Methoxyethyl)-5-methyl-2,4-dioxo-3-(1,1,1-trifluoropropan-2-yl)-1,2,3,4-tetrahydrothieno[2,3-d]pyrimidin-6-yl]methyl}imidazolidin-2-ylidene]cyanamide]",14
19,"COC(C)Cn1c(=O)c2c(C)c(CN3CCNC3=NC#N)sc2n(CCC(F)(F)F)c1=O (racemic) [Example 454, [1-{[3-(2-Methoxypropyl)-5-methyl-2,4-dioxo-1-(3,3,3-trifluoropropyl)-1,2,3,4-tetrahydrothieno[2,3-d]pyrimidin-6-yl]methyl}imidazolidin-2-ylidene]cyanamide]",6.1
20,"COC(=O)N=C1NCCN1Cc1sc2c(c1C)c(=O)n(CC(C)(C)C)c(=O)n2CC1CCCO1 (racemic) [Example 463, Methyl [1-{[3-(2,2-dimethylpropyl)-5-methyl-2,4-dioxo-1-(tetrahydrofuran-2-ylmethyl)-1,2,3,4-tetrahydrothieno[2,3-d]pyrimidin-6-yl]methyl}imidazolidin-2-ylidene]carbamate]",9.9
21,"COC(=O)N=C1NCCN1Cc1sc2c(c1C)c(=O)n(C(C)C(F)(F)F)c(=O)n2CCC(F)(F)F (racemic) [Example 470, Methyl [1-{[5-methyl-2,4-dioxo-3-(1,1,1-trifluoropropan-2-yl)-1-(3,3,3-trifluoropropyl)-1,2,3,4-tetrahydrothieno[2,3-d]pyrimidin-6-yl]methyl}imidazolidin-2-ylidene]carbamate]",5.1
22,"COCCn1c(=O)n(C(C)C(F)(F)F)c(=O)c2c(C)c(CN3CCNC3=NC(=O)OC)sc21 (racemic) [Example 471, Methyl [1-{[1-(2-methoxyethyl)-5-methyl-2,4-dioxo-3-(1,1,1-trifluoropropan-2-yl)-1,2,3,4-tetrahydrothieno[2,3-d]pyrimidin-6-yl]methyl}imidazolidin-2-ylidene]carbamate]",18
23,"COC(=O)N=C1NCCN1Cc1sc2c(c1C)c(=O)n(CC(C)OC)c(=O)n2CCC(F)(F)F (racemic) [Example 472, Methyl [1-{[3-(2-methoxypropyl)-5-methyl-2,4-dioxo-1-(3,3,3-trifluoropropyl)-1,2,3,4-tetrahydrothieno[2,3-d]pyrimidin-6-yl]methyl}imidazolidin-2-ylidene]carbamate]",6.7
